Where “and” joins values, the source holds several entries; their conditions need not be identical. Identical values can stand only once. Entries after “also recorded” stand apart in the source; their conditions may differ.
Experiments:
[1] = test system: Gαs mRNA in PBMCs; assay: Gαs mRNA in PBMCs exposed to vasopressin (real-time RT-PCR); assay type: cell-based, human
Procedure: (§1) Samples were taken from the patients, as described in Example 1, and mRNA was isolated from cells exposed to vasopressin and analyzed for amount of mRNA expressing Gαs and Gαq.
(§2) Venipuncture. 3 ml/kg of blood (to a maximum of 40 cc) were drawn after a 2 hour fast between 10 am and 12 am as previously described (Modahl). EMLA (topical lidocaine cream) was placed on the antecubital region of both arms and covered with tegaderm prior to blood draw. 10 ml of blood was collected in heparinized tubes on ice until processing within 15 minutes. This aliquot was centrifuged at 4° C. at 3000 g for 20 minutes, after which the plasma was stored in 1 ml aliquots at −80° C. until further processing, at which time it was transported on dry ice to the laboratory. The remaining blood (up to 30 cc) was placed on ice and transported within 30 minutes of blood draw to the same lab. PBMC isolation, hormone treatment and cell culture. PBMCs were isolated from heparinized blood using Histopaque 1077 (Sigma-Aldrich, St. Louis, Mo.). Briefly, 5 ml of blood was diluted 1:1 in PBS and carefully layered onto 3 ml of Histopaque 1077 in a 50 ml conical centrifuge tube. Tubes were centrifuged at 400 g for 30 min at RT. The buffy coat was removed from the tube and washed three times in complete RPMI without phenol red. Cell counts and viability were determined using Trypan blue. Cell viability was >95%. Resultant PBMC's were suspended in complete RPMI with 10% charcoal stripped, dilapidated fetal calf serum (FCS) (Invitrogen, Carlsbad, Calif.) and added in 1 ml aliquots to 12 well plate with vehicle and vasopressin (10−8M) in RPMI+10% charcoal stripped, dilapidated FCS. Cells were incubated overnight (18-24 hr) before wells were harvested and rinsed. Cell suspensions were centrifuged at 500 g for 10 min at RT, and supernatant was aspirated. Buffer RLT Plus from the RNeasy Mini Plus Kit (QIAgen, Valencia, Calif.) was added to the cell pellets before vortexing to lyse cells. Samples were stored at −80° C. before RNA purification and isolation.
(§3) RNA isolation and quantitation. Samples were thawed, vortexed, and placed in QIAshredder columns. Columns were centrifuged for 2 min at 15000 g. The homogenized lysate was transferred to a gDNA Eliminator spin column and centrifuged for 30 sec at 9000 g. Equal volumes of 70% ethanol were added to the eluent. The mixture was transferred to RNeasy spin columns and centrifuged for 15 sec at 9000 g. Columns were washed with Buffer RW1 and the Buffer RPE, centrifuging for 15 sec at 9000 g, each time discarding the eluent. Buffer RPE was again added and columns centrifuged for 2 min at 9000 g to dry the column. Columns were then centrifuged for 1 min at 15000 g. RNA was eluted with the addition of Nuclease-free water and spun for 1 min at 9000 g. RNA was examined by spectrophotometry and quantitated using the Ribogreen assay (Invitrogen, Carlsbad, Calif.). Samples were diluted 1:200. Standards of 0, 20, 100, 500, and 1000 ng/ml were made from E. coli ribosomal RNA in TE buffer. Ribogreen reagent (1:200) was added to samples and standards, and samples were read on a Bio-Tek FLx800 fluorescent plate reader. RNA was diluted in nuclease-free water to a final concentration of 150 ng/ml cDNA.
(§4) cDNA construction and one-step real-time RT-PCR. Reverse transcription was performed using the SuperScript II Reverse Transcription Kit (Invitrogen, Carlsbad, Calif.). […]

[2] = test system: Gαq mRNA in PBMCs; assay: Gαq mRNA in PBMCs exposed to vasopressin (real-time RT-PCR); assay type: cell-based, human
Procedure: as §1, §2, §3, §4

[3] = test system: Gαs protein in PBMCs; assay: Gαs protein expression in PBMCs exposed to vasopressin (immunoblot); assay type: cell-based, human
Procedure: (§5) Membrane preparation for membrane-associated proteins. For protein studies, PBMC's were manipulated at 4° C., as previously described in Example 4. PBMC's were individually homogenized (1:30, wt/vol) in ice-cold 0.25 M sucrose and 50 mM Tris-HCL, (pH 7.6) in a Dounce homogenizer, centrifuged twice at 800×g for 5 min before centrifugation of the supernatants at 30,000×g for 60 min. The pellet was resuspended in assay buffer and used directly in the binding assay. Protein concentration was determined by BCA protein assay kit (Pierce, Rockford, Ill.) using bovine serum albumin (BSA) as a standard.
(§6) Immunoblot analysis for membrane-associated proteins. Total membrane proteins were prepared as for receptor assays above. Samples were electrophoresed in 12% Tris-HCl resolving gels and transferred to 0.45 μm nitrocellulose membranes (Bio-Rad, Hercules, Calif.) by electroblotting. […] After three washes in TBST, membranes were incubated for 1 h in TBST and 1% non fat dry milk with horseradish peroxidase conjugated 2° antibodies (Jackson Immunoresearch, West Grove, Pa.). Bands were visualized by exposure of the membranes to autoradiographic film (MidSci, St. Louis, Mo.). The membranes were then stripped with Restore™ Western Blot Stripping Buffer (Pierce, Rockford Ill.) for 30 min at 37° C. and reprobed for actin protein as an internal control. The bands were quantified using a densitometer (GE Healthcare, Piscataway, N.J.).
(§7) Specific G protein antibodies. Specific Gαs and Gαq/11 antibodies made in rabbit without cross reactivity to other G proteins were used at a 1:500 dilution and originated from Santa Cruz Biotechnology (Santa Cruz, Calif.).

[4] = test system: Gαq protein in PBMCs; assay: Gαq protein expression in PBMCs exposed to vasopressin (immunoblot); assay type: cell-based, human; set-up: Gαq protein expression, Control Vasopressin / Gαq protein expression, Average, Control Vasopressin: scale not given here
Procedure: as §5, §6, §7

[5] = test system: Gαs in PBMCs; conditions: bipolar illness and schizophrenia; cited from earlier work
[6] = PBMCs of individual children with ASD, vasopressin 10−8M, 18-24 hr
[7] = PBMCs of individual control children, vasopressin 10−8M, 18-24 hr
[8] = average of autism group, vasopressin 10−8M
[9] = average of control group, vasopressin 10−8M
[10] = ASD versus without ASD, both exposed to vasopressin
[11] = PBMCs of individual children with ASD, immunoblot densitometry
[12] = PBMCs of individual control children, immunoblot densitometry

Structure (SMILES): NC(=O)CC[C@@H]1NC(=O)[C@H](Cc2ccccc2)NC(=O)[C@H](Cc2ccc(O)cc2)NC(=O)[C@@H](N)CSSC[C@@H](C(=O)N2CCC[C@H]2C(=O)N[C@@H](CCCN=C(N)N)C(=O)NCC(N)=O)NC(=O)[C@H](CC(N)=O)NC1=O [Vasopressin, Arginine vasopressin]
- Gαs mRNA (% of control), Autism Vasopressin [1, 6]: 59.5 % of control and 151.6 % of control and 373.2 % of control and 65.9 % of control and 181.8 % of control and 66.3 % of control and 52.6 % of control and 77 % of control and 62 % of control and 54 % of control and 21.1 % of control and 114.8 % of control and 144.4 % of control and 67.6 % of control and 99.7 % of control and 147.3 % of control and 78.5 % of control and 43.7 % of control and 214.4 % of control
- Gαs mRNA (% of control), Control Vasopressin [1, 7]: 200 % of control and 245.8 % of control and 137.6 % of control and 66.3 % of control and 42.7 % of control and 58.3 % of control and 120 % of control and 31.9 % of control and 33.1 % of control and 66.1 % of control and 30.8 % of control
- Gαs mRNA (% of control), Average, Autism Vasopressin [1, 8]: 109.1 % of control
- Gαs mRNA (% of control), Average, Control Vasopressin [1, 9]: 93.9 % of control
- change of Gαs mRNA on vasopressin exposure ([1]; healthy patients): increased
- Gαq mRNA (% of control), Autism Vasopressin [2, 6]: 7.45 % of control and 48.7 % of control and 96.6 % of control (2×) and 171.8 % of control and 43.6 % of control and 37.48 % of control and 13.87 % of control and 12.07 % of control and 24.1 % of control and 7.99 % of control and 48.3 % of control and 90.1 % of control and 90.18 % of control and 107.8 % of control and 8.62 % of control and 1.94 % of control and 30.78 % of control
- Gαq mRNA (% of control), Control Vasopressin [2, 7]: 9.17 % of control and 3.36 % of control and 54.5 % of control and 23.7 % of control and 1.04 % of control and 12.94 % of control and 1.11 % of control and 100.5 % of control and 59.8 % of control and 146.7 % of control and 45.1 % of control and 16.42 % of control and 24.87 % of control and 26.4 % of control
- Gαq mRNA (% of control), Average, Autism Vasopressin [2, 8]: 52.11 % of control
- Gαq mRNA (% of control), Average, Control Vasopressin [2, 9]: 37.5 % of control
- change of Gαq mRNA on vasopressin exposure ([2]; healthy patients): increased
- Gαs protein expression after vasopressin exposure, patients with ASD lower than patients without ASD [3, 10]: about 37%
- Gαs protein expression, Autism Vasopressin [3, 11]: 0.16 and 0.03 (2×) and 0.04 and 0.01 and 0.14 and 0 and 0.33 (2×) and 0.69 and 0.83 and 0.86 and 0.52 and 0.7
- Gαs protein expression, Control Vasopressin [3, 12]: 0.3 and 0.83 and 0.35 and 1.63 and 0.33 and 0.19 and 0.48 and 0.29 and 1.26 and 0.51 and 0.62 and 0.67
- Gαs protein expression, Average, Autism Vasopressin ([3]; average of autism group): .33
- Gαs protein expression, Average, Control Vasopressin ([3]; average of control group): .54
- change of Gαs protein expression on vasopressin exposure ([3]; patients with ASD): down-regulation trend; also recorded: decreased
- change of Gαs protein expression on vasopressin exposure ([3]; patients without ASD): appeared to be higher; also recorded: up-regulating
- Gαq protein expression after vasopressin exposure, patients with ASD less than patients without ASD [4, 10]: about 28%
- Gαq protein expression, Autism Vasopressin [4, 11]: 4.17 and 12.58 and 0 (5×) and 9.53 and 0.36 and 1.26 and 4.64 and 4.01 and 0.19 and 1.13
- Gαq protein expression, Control Vasopressin [4, 12]: 7.84 and 0.25 and 0.6 and 0 and 10.56 and 0.26 and 1.86 and 3.96 and 0.35 and 2.86 and 2.81 and 13.29
- Gαq protein expression, Average, Autism Vasopressin ([4]; average of autism group): 2.71
- Gαq protein expression, Average, Control Vasopressin ([4]; average of control group): 3.72
- change of Gαq protein expression on vasopressin exposure ([4]; patients with ASD): down-regulation trend; also recorded: decreased
- change of Gαq protein expression on vasopressin exposure ([4]; patients without ASD): appeared to be higher; also recorded: up-regulating

Structure (SMILES): O=C(CCCN1CCC(O)(c2ccc(Cl)cc2)CC1)c1ccc(F)cc1 [haldol]
- Gαs levels in PBMCs under treatment [5]: decrease
